Source: US20250282771A1, “TETRAHYDROISOQUINOLINE HETEROBIFUNCTIONAL BCL-XL DEGRADERS” (Treeline Biosciences, Inc., priority 2022, published 2025)

The molecules below were run against T1, N-terminal HiBiT tagged BCL-XL (Homo sapiens, UniProt Q07817) (assay: HiBiT based degradation assay). Conditions: HT1080 cells expressing N-terminal HiBiT tagged BCL-XL; 6 h; BCL-XL level normalized with DMSO control.
T1 construct: expressed in transfected cells; host or cells: HT-1080 (ATCC CCL-121) cells stably transduced with lentivirus pLV-UBC-N-HiBiT-BCL-XL-PGK-puro
T1 sequence (Q07817 whole entry): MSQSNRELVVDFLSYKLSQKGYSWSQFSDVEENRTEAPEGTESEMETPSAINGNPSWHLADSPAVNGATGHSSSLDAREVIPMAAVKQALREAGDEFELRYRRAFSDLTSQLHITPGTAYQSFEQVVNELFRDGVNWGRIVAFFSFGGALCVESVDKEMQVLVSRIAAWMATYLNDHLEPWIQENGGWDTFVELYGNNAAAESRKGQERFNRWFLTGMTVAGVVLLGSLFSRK
Type: cell-based
Source text: Human BCL-XL protein coding open reading frame fused with N-terminal HiBiT coding sequence was synthesized from Integrated DNA Technologies (IDT). Next, N-HiBiT-BCL-XL sequence was cloned into pLV-UBC-PGK-Puro, a lentivirus plasmid purchased from Vectorbuilder, to generate pLV-UBC-N-HiBiT-BCL-XL-PGK-puro. Lentiviral particles were generated from Lenti-X™ 293T cells (Clontech) by co-transfection of pLV-UBC-N-HiBiT-BCL-XL-PGK-puro plasmids and lentiviral packaging plasmid mix (Cellecta). HT-1080 [HT1080](ATCC CCL-121) cells were infected with the lentivirus, and HT1080 cells stably integrated with the lentiviral vectors were established by incubation with […] puromycin (Thermofisher).
HT1080 cells expressing N-terminal HiBiT tagged BCL-XL were dispensed into a 384-well plate pre-spotted with compounds at varying concentrations. Three thousand cells were seeded into each well in 40 μL of RPMI 1640 media. […] After incubation, luminescence was read on a PHERAstar FSX Plate Reader (BMG). BCL-XL degradation at each indicated concentration was normalized with the DMSO control. The BCL-XL degradation curves were plotted using a four-parameter logistic model. For compounds displaying hook effects, the curve fitting was performed using the bottom point of the hook curves (i.e., the point of Ymin) as the bottom plateau to calculate EC50.
With Cc1c(O[C@H]2CC[C@H](CCC(=O)N3CCC(c4cc5c(cc4F)C(=O)N(C4CCC(=O)NC4=O)C5=O)CC3)CC2)cccc1-c1ccc(N2CCc3cccc(C(=O)Nc4nc5ccccc5s4)c3C2)nc1C(=O)O (stereo partly drawn) [Compound 140a, 6-(8-(benzo[d]thiazol-2-ylcarbamoyl)-3,4-dihydroisoquinolin-2(1H)-yl)-3-(3-(((1r,4r)-4-(3-(4-(2-(2,6-dioxopiperidin-3-yl)-6-fluoro-1,3-dioxoisoindolin-5-yl)piperidin-1-yl)-3-oxopropyl)cyclohexyl)oxy)-2-methylphenyl)picolinic acid] the “Ymin (6 h)” value was “C (Ymin ≥ 70%)”. With Cc1c(OCCCCCCCN2CCN(c3cc4c(cc3F)C(=O)N(C3CCC(=O)NC3=O)C4=O)CC2)cccc1-c1ccc(N2CCc3cccc(C(=O)Nc4nc5ccccc5s4)c3C2)nc1C(=O)O (stereo not drawn) [Compound 104, 6-(8-(benzo[d]thiazol-2-ylcarbamoyl)-3,4-dihydroisoquinolin-2(1H)-yl)-3-(3-((7-(4-(2-(2,6-dioxopiperidin-3-yl)-6-fluoro-1,3-dioxoisoindolin-5-yl)piperazin-1-yl)heptyl)oxy)-2-methylphenyl)picolinic acid] the “Ymin (6 h)” value was “B (50% ≤ Ymin < 70%)”. For Cc1c(OCCCCCCCCCCCN2CCN(c3cc4c(cc3F)C(=O)N(C3CCC(=O)NC3=O)C4=O)CC2)cccc1-c1ccc(N2CCc3cccc(C(=O)Nc4nc5ccccc5s4)c3C2)nc1C(=O)O (stereo not drawn) [Compound 107], the “Ymin (6 h)” value was “B (50% ≤ Ymin < 70%)”. With O=C1CCC(N2C(=O)c3cc(F)c(N4CCN(CCCCCCCOc5cccc(-c6ccc(N7CCc8cccc(C(=O)Nc9nc%10ccccc%10s9)c8C7)nc6C(=O)O)c5)CC4)cc3C2=O)C(=O)N1 (stereo not drawn) [Compound 103] the “Ymin (6 h)” value was “B (50% ≤ Ymin < 70%)”.

Same assay, conditions: HT1080 cells expressing N-terminal HiBiT tagged BCL-XL; 24 h; BCL-XL level normalized with DMSO control
In the case of Cc1c(OCC[C@H](C)C2CCN(CC(=O)N3CCN(c4cc5c(cc4F)C(=O)N(C4CCC(=O)NC4=O)C5=O)CC3)CC2)cccc1-c1ccc(N2CCc3cccc(C(=O)Nc4nc5ccccc5s4)c3C2)nc1C(=O)O (stereo partly drawn) [Compound 130a, 6-[8-(1,3-benzothiazol-2-ylcarbamoyl)-3,4-dihydro-1H-isoquinolin-2-yl-3-[3-[(3S)-3-1-[2-[4-[2-(2,6-dioxo-3-piperidyl)-6-fluoro-1,3-dioxo-isoindolin-5-yl]piperazin-1-yl]-2-oxo-ethyl]-4-piperidyl]butoxy]-2-methyl-phenyl]pyridine-2-carboxylic acid], the “Ymin (24 h)” value is reported as “B (50% ≤ Ymin < 70%)”. With Cc1c(O[C@H]2CC[C@H](CCC(=O)N3CCC(c4cc5c(cc4F)C(=O)N(C4CCC(=O)NC4=O)C5=O)CC3)CC2)cccc1-c1ccc(N2CCc3cccc(C(=O)Nc4nc5ccccc5s4)c3C2)nc1C(=O)O (stereo partly drawn) [Compound 140a, 6-(8-(benzo[d]thiazol-2-ylcarbamoyl)-3,4-dihydroisoquinolin-2(1H)-yl)-3-(3-(((1r,4r)-4-(3-(4-(2-(2,6-dioxopiperidin-3-yl)-6-fluoro-1,3-dioxoisoindolin-5-yl)piperidin-1-yl)-3-oxopropyl)cyclohexyl)oxy)-2-methylphenyl)picolinic acid] the “Ymin (24 h)” value was “A (Ymin < 50%)”. In the case of Cc1c(OCCCC2CCN(CC3CCN(c4cc5c(cc4F)C(=O)N(C4CCC(=O)NC4=O)C5=O)CC3)CC2)cccc1-c1ccc(N2CCc3cccc(C(=O)Nc4nc5ccccc5s4)c3C2)nc1C(=O)O (stereo not drawn) [Compound 143, 6-[8-(1,3-benzothiazol-2-ylcarbamoyl)-3,4-dihydro-1H-isoquinolin-2-yl]-3-[3-[3-[1-[[1-[2-(2,6-dioxo-3-piperidyl)-6-fluoro-1,3-dioxo-isoindolin-5-yl]-4-piperidyl]methyl]-4-piperidyl]propoxy]-2-methyl-phenyl]pyridine-2-carboxylic acid], the “Ymin (24 h)” value is reported as “B (50% ≤ Ymin < 70%)”. With Cc1c(O[C@H]2CC[C@H](CCCC(=O)N3CCN(c4cc5c(cc4F)C(=O)N(C4CCC(=O)NC4=O)C5=O)CC3)CC2)cccc1-c1ccc(N2CCc3cccc(C(=O)Nc4nc5ccccc5s4)c3C2)nc1C(=O)O (stereo partly drawn) [Compound 139a, 6-(8-(benzo[d]thiazol-2-ylcarbamoyl)-3,4-dihydroisoquinolin-2(1H)-yl)-3-(3-(((1s,4r)-4-(4-(4-(2-(2,6-dioxopiperidin-3-yl)-6-fluoro-1,3-dioxoisoindolin-5-yl)piperazin-1-yl)-4-oxobutyl)cyclohexyl)oxy)-2-methylphenyl)picolinic acid] the “Ymin (24 h)” value was “B (50% ≤ Ymin < 70%)”. With Cc1c(OCCCCN2CCC(CN3CCN(c4cc5c(cc4F)C(=O)N(C4CCC(=O)NC4=O)C5=O)CC3)CC2)cccc1-c1ccc(N2CCc3cccc(C(=O)Nc4nc5ccccc5s4)c3C2)nc1C(=O)O (stereo not drawn) [Compound 123, 6-[8-(1,3-benzothiazol-2-ylcarbamoyl)-3,4-dihydro-1H-isoquinolin-2-yl]-3-[3-[4-[4-[[4-[2-(2,6-dioxo-3-piperidyl)-6-fluoro-1,3-dioxo-isoindolin-5-yl]piperazin-1-yl]methyl]-1-piperidyl]butoxy]-2-methyl-phenyl]pyridine-2-carboxylic acid] the “Ymin (24 h)” value was “B (50% ≤ Ymin < 70%)”. For Cc1c(OCCCCCCCN2CCN(c3cc4c(cc3F)C(=O)N(C3CCC(=O)NC3=O)C4=O)CC2)cccc1-c1ccc(N2CCc3cccc(C(=O)Nc4nc5ccccc5s4)c3C2)nc1C(=O)O (stereo not drawn) [Compound 104, 6-(8-(benzo[d]thiazol-2-ylcarbamoyl)-3,4-dihydroisoquinolin-2(1H)-yl)-3-(3-((7-(4-(2-(2,6-dioxopiperidin-3-yl)-6-fluoro-1,3-dioxoisoindolin-5-yl)piperazin-1-yl)heptyl)oxy)-2-methylphenyl)picolinic acid], the “Ymin (24 h)” value was “B (50% ≤ Ymin < 70%)”. For Cc1c(OCC2CC3(CCN(CCN4CCN(c5cc6c(cc5F)C(=O)N(C5CCC(=O)NC5=O)C6=O)CC4)CC3)C2)cccc1-c1ccc(N2CCc3cccc(C(=O)Nc4nc5ccccc5s4)c3C2)nc1C(=O)O (stereo not drawn) [Compound 132, 6-(8-(benzo[d]thiazol-2-ylcarbamoyl)-3,4-dihydroisoquinolin-2(1H)-yl)-3-(3-((7-(2-(4-(2-(2,6-dioxopiperidin-3-yl)-6-fluoro-1,3-dioxoisoindolin-5-yl)piperazin-1-yl)ethyl)-7-azaspiro[3.5]nonan-2-yl)methoxy)-2-methylphenyl)picolinic acid], the “Ymin (24 h)” value was “B (50% ≤ Ymin < 70%)”. In the case of Cc1c(O[C@H]2CC[C@H](CCCCN3CCN(c4cc5c(cc4F)C(=O)N(C4CCC(=O)NC4=O)C5=O)CC3)CC2)cccc1-c1ccc(N2CCc3cccc(C(=O)Nc4nc5ccccc5s4)c3C2)nc1C(=O)O (stereo partly drawn) [Compound 129a, 6-(8-(benzo[d]thiazol-2-ylcarbamoyl)-3,4-dihydroisoquinolin-2(1H)-yl)-3-(3-(((1s,4r)-4-(4-(4-(2-(2,6-dioxopiperidin-3-yl)-6-fluoro-1,3-dioxoisoindolin-5-yl)piperazin-1-yl)butyl)cyclohexyl)oxy)-2-methylphenyl)picolinic acid], the “Ymin (24 h)” value is reported as “B (50% ≤ Ymin < 70%)”.
